Test results reported in patent publication US6617337B1, “Use of nitroxides for the treatment of essential hypertension” (Georgetown University, priority 1997, dated 2003).

How the values were obtained:
Format in all cases: in vivo, rat
SHR [1] = test: TGF response to SNAP microperfused into the macula densa during Tempol microperfusion via the efferent arteriole
Excerpt: Two additional microperfusion studies were undertaken to assess the mechanism of Tempol action in SHR. […] A dose of 10^−6 M […] (SNAP), a NO donor compound, was microperfused into the macula densa of the rats. […] Other NO donor compounds include nitroprusside and nitrates.

SHR and WKY rats [2] = test: Maximal TGF responses (proximal stop flow pressure) during orthograde loop of Henle microperfusion of 7-NI (Series 4); settings: for PSF difference 0-40 nl·min^−1 (maximal TGF response) / PSF during LH perfusion at 0 nl·min^−1 / PSF during LH perfusion at 40 nl·min^−1: ATF+7-NI 10^−4 M, mean ± SEM
Experimental: (§1) Series 4. Effects of inhibition of bNOS on maximal TGF responses in SHR and WKY. These experiments further examined the SHR hypertension model and whether the enhanced TGF of the SHR kidney is due to a blunted generation of NO by bNOS in the macula densa or whether NOS inhibition is diminished in the SHR model. Groups of SHR and age-matched WKY rats were prepared for in vivo micropuncture, microperfusion, and TGF studies as described in detail previously. In brief, animals were anesthetized with thiobarbital (Inactin, 100 mg·kg^−1; Research Biochemicals, Inc., Natick, Mass.). A catheter was placed in a jugular vein for fluid infusion and in a femoral artery for recording of mean arterial pressure (MAP) from the electrically damped output of a pressure transducer (Statham, Inc.). A tracheotomy tube was inserted and the animals were allowed to breathe spontaneously. The left kidney was exposed by a flank incision, cleaned of connective tissue, and stabilized in a Lucite cup. This kidney was bathed in 0.154 M NaCl maintained at 37° C. After completion of surgery, rats were infused with a solution of 0.154 M NaCl and 1% albumin at 1.5 ml·h^−1 to maintain a euvolemic state. Micropuncture studies were begun after 60 min for stabilization.
(§2) For orthograde microperfusion of the loop of Henle (LH), a micropipette (8 μm OD) containing artificial tubular fluid (ATF) stained with FD&C dye was inserted into a late proximal tubule. Injections of the colored ATF identified the nephron and the direction of flow. An immobile bone wax block was inserted into this micropuncture site via a micropipette (10-15 μm) and connected to a hydraulic drive (Trent Wells, Inc., LaJolla, Calif.) to halt tubular fluid flow. A perfusion micropipette (6-8 μm) containing ATF and test compounds or vehicle was inserted into the proximal tubule downstream from the wax block and connected to a nanoliter perfusion pump (WPI, Sarasota, Fla.). A pressure micropipette (1-2 μm) was inserted into the proximal tubule upstream from the wax block to measure proximal stop flow pressure (PSF). Changes in PSF are an index of changes in glomerular capillary hydraulic pressure (PGC). Measurements of PSF were made in each nephron during zero loop perfusion and during perfusion with ATF at 40 nl·min^−1, which produces a maximal TGF response, defined as the difference between PSF values recorded during perfusion of the loop with ATF at 0 and 40 nl·min^−1.
The maximal TGF responses were determined in SHR (n=4) and WKY rats (n=4) to perfusion of the LH with ATF+vehicle and contrasted with the maximal TGF responses during perfusion with ATF+7-nitroindazole (7-NI; 10^−4 M).

SHR rats = test: TGF response to 7-NI microperfused into the macula densa before and during Tempol microperfusion into efferent arterioles
Excerpt: This also implies that it had normalized the action of NO in this setting, thereby correcting the defect in the NO action in hypertension and restoring normal vascular control. This is filly consistent with its action on a free radical scavenging agent that thereby protects NO from radical attack.

SHR [3] = test: Role of NO in the MAP response to constant Tempol infusion (L-NAME or norepinephrine pretreatment); settings: for Change in MAP at 50 min (time control): separate group of SHR, NS
SHR and WKY rats [4] = test: Maximal TGF responses during orthograde microperfusion of L-arginine (Series 5); settings: for PSF difference 0-40 nl·min^−1 (maximal TGF response) / PSF during LH perfusion at 0 nl·min^−1 / PSF during LH perfusion at 40 nl·min^−1: ATF+L-arginine 10^−3 M, mean ± SEM
Experimental: as §1, §2
Series 5: Maximal TGF responses during microperfusion of L-arginine in SHR and WKY. L-arginine had previously been shown not to lower blood pressure or the glomerular filtration rate in the SHR model. However, L-arginine can restore a TGF response to NOS blockade in tested rats adapted to low salt intake. Therefore, the role of L-arginine was tested in the SHR model. This series examined the effect of a reduced delivery of L-arginine to the macula densa on NO generation, as assessed in Series 4. Groups of SHR (n=4) and WKY rats (n=3) were prepared for microperfusion. PSF was recorded during orthograde LH perfusion at 0 and 40 nl·min^−1 with ATF+vehicle and ATF+L-arginine (10^−3 M). (Previous studies had shown that this was a maximally effective dose.)

CC(=O)N[C@H](C(=O)O)C(C)(C)SN=O (racemic) [SNAP, 5-nitroacetylpenacillamine]
Blunting of TGF response (SHR [1]; SNAP 10^−6 M during Tempol 10^−4 M microperfusion via efferent arteriole, p<0.01): more than 25%
Effect of SNAP dose alone on TGF (SHR [1]; SNAP 10^−6 M into macula densa, without Tempol): just subthreshold

O=[N+]([O-])c1cccc2cn[nH]c12 [7-NI, 7-nitroindazole]
Effect on TGF responses (SHR and WKY rats [2]; SHR, 7-NI added to orthograde LH perfusate): no significant effects
PSF difference 0-40 nl·min^−1 (maximal TGF response) (SHR and WKY rats [2]; SHR): 12.5 ± 0.6 mm Hg
PSF during LH perfusion at 0 nl·min^−1 (SHR and WKY rats [2]; SHR): 41.0 ± 1.0 mm Hg
PSF during LH perfusion at 40 nl·min^−1 (SHR and WKY rats [2]; SHR): 29.3 ± 0.7 mm Hg
Average increase in maximal TGF response (SHR and WKY rats [2]; WKY, 7-NI added to orthograde LH perfusate): 39%
PSF difference 0-40 nl·min^−1 (maximal TGF response) (SHR and WKY rats [2]; WKY): 13.2 ± 0.7 mm Hg
PSF during LH perfusion at 0 nl·min^−1 (SHR and WKY rats [2]; WKY): 38.1 ± 0.8 mm Hg
PSF during LH perfusion at 40 nl·min^−1 (SHR and WKY rats [2]; WKY): 25.0 ± 1.2 mm Hg
Increase in TGF in the presence of 7-NI (SHR rats; 7-NI 10^−4 M during Tempol 10^−4 M microperfusion into efferent arterioles): greater than 25%
TGF response to 7-NI before Tempol (SHR rats; 7-NI 10^−4 M into macula densa, before Tempol): no significant TGF response

COC(=O)[C@@H](N)CCCNC(=N)N[N+](=O)[O-] [L-NAME]
Increase in MAP (SHR [3]; SHR, twenty minutes of L-NAME infusion alone): 18%
MAP after L-NAME infusion alone (SHR [3]; SHR, twenty minutes of L-NAME infusion, from 158±11): 187±8 mm Hg
Change in MAP at 50 min (time control) (SHR [3]; L-NAME infusion): 0.3±3.3%

N=C(N)NCCC[C@H](N)C(=O)O [L-arginine]
PSF difference 0-40 nl·min^−1 (maximal TGF response) (SHR and WKY rats [4]; SHR): 10.6 ± 0.7 mm Hg
PSF during LH perfusion at 0 nl·min^−1 (SHR and WKY rats [4]; SHR): 41.0 ± 1.2 mm Hg
PSF during LH perfusion at 40 nl·min^−1 (SHR and WKY rats [4]; SHR): 30.4 ± 0.7 mm Hg
Effect on TGF responses (SHR and WKY rats [4]; SHR, L-arginine added to orthograde LH perfusate): no significant effects
PSF difference 0-40 nl·min^−1 (maximal TGF response) (SHR and WKY rats [4]; WKY): 6.3 ± 0.4 mm Hg
PSF during LH perfusion at 0 nl·min^−1 (SHR and WKY rats [4]; WKY): 36.1 ± 0.7 mm Hg
PSF during LH perfusion at 40 nl·min^−1 (SHR and WKY rats [4]; WKY): 29.8 ± 0.5 mm Hg
Average blunting of TGF responses (SHR and WKY rats [4]; WKY, L-arginine added to orthograde LH perfusate): 18%

NC[C@H](O)c1ccc(O)c(O)c1 [Norepinephrine, norepinephrine]
Increase in MAP (SHR [3]; SHR, norepinephrine 31 nmol·kg^−1·min^−1): 15%
MAP after norepinephrine infusion (SHR [3]; SHR, norepinephrine 31 nmol·kg^−1·min^−1, from 164±4): 188±7 mm Hg
Change in MAP at 50 min (time control) (SHR [3]; norepinephrine infusion): 2.0±0.0%
